This note sets out measurements from US10689404B1, “Preparation method of tetraboronic acid compounds, and tetraboronic acid compounds” (Tamkang University, priority 2019, dated 2020).

What all share (format): cell-based
In assay [1] the test system is osteosarcoma cell U2OS. In words: Fluorescence microscopy with DAHMI sensor: accumulation in mitochondria versus BPA. Particulars: osteosarcoma cells, mitochondria stained with Mito tracker Green FM. The method, then:
(§1) The tetraboronic acid compound prepared by the preparation method is subjected to a biological experimental test for further discussing the application of the tetraboronic acid compound as a potential drug of the BNCT. Since the BNCT is mainly used for a head and neck cancer, the experiments are performed using osteosarcoma cell U2OS as a material.
(§2) By utilizing the characteristics that a fluorescence sensor (DAHMI) is stably bonded to boric acid, and a complex compound thereof can emit blue fluorescence, whether the tetraboronic acid compound enters cells or not is observed. The tetraboronic acid compound is firstly added to the osteosarcoma cells to act for 24 hours. Next, after the tetraboronic acid compound is washed away, the fluorescence sensor DAHMI is added and soaked for 20 minutes, and the cells are cleaned with phosphate buffered saline (PBS). Finally, the cell nuclei are stained with a TOTO™-3 dye or the mitochondria are stained with a Mito tracker Green FM dye, and the cells are observed under a fluorescence microscope (Model: Leica DM2500 & DM2500 LED Optical microscopes), and the results are shown in FIG. 2.
Referring to FIG. 3, FIG. 3 is a cell fluorescence micrograph of a tetraboronic acid compound and a clinical drug boronophenylalanine (BPA) according to one embodiment of the present invention.

Assay [2] relates to osteosarcoma cell U2OS. Briefly: Fluorescence microscopy with DAHMI sensor: entry of the tetraboronic acid compound into the cell nucleus. The conditions noted are these: osteosarcoma cells, compound acting 24 hours, 1.0 mM DAHMI at 37° C. for 20 minutes, nuclei stained with TOTO-3. As to the method: as §1, §2
Referring to FIG. 2, FIG. 2 is a cell fluorescence micrograph of a tetraboronic acid compound entering osteosarcoma cells according to one embodiment of the present invention. […]

The subject of assay [3] is osteosarcoma cell U2OS. In words: Flow cytometry of DAHMI fluorescence content (boron compound content in cells). The conditions noted are these: for Fluorescence content relative to the clinical drug boronophenylalanine: 2.0 mM, ratio to BPA; for Fluorescence content: boron compound 2.0 mM, DAHMI sensor, flow cytometer. The method, then: as §1
The content of the boron atoms in the osteosarcoma cells is further analyzed, and the fluorescence sensor DAHMI in the cells is excited by a flow cytometer (Model: Thermo Fisher Scientific Attune™ NxT Flow Cytometer) to detect the fluorescence content, thereby analyzing the content of the boron compound bonded to the fluorescence sensor DAHMI. After the osteosarcoma cells are treated with the clinical drug boronophenylalanine (BPA), B3 and B9 respectively, the fluorescence content is detected by the flow cytometer.
(In general: Flow cytometry measures light scatter and fluorescence of single cells or particles in a stream.)

With `O=C(NCc1ccc(B(O)O)cc1)C(c1cccc(B(O)O)c1)N(C(=O)c1ccc(B(O)O)cc1)c1ccc(B(O)O)cc1` (centres unmarked) [Example B3], in the assay on osteosarcoma cell U2OS [1], the “Accumulation in the mitochondria (DAHMI fluorescence brightness level compared with BPA, FIG. 3)” value is “more capable of accumulating in the mitochondria than clinical BPA”. The “Entry into the cell nucleus (blue DAHMI fluorescence brightness, FIG. 2)” value in the assay with osteosarcoma cell U2OS [2] was “enter the cell nucleus more easily than other compounds”. In addition, in the assay with osteosarcoma cell U2OS [3], the “Fluorescence content relative to the clinical drug boronophenylalanine” value was 1.95 times and the Fluorescence content was found to be 4831 A.u.

`O=C(NCc1ccc(B(O)O)cc1F)C(c1cc(B(O)O)ccc1F)N(C(=O)c1ccc(B(O)O)cc1F)c1ccc(B(O)O)cc1` (centres unmarked) [Example B9]: in the assay on osteosarcoma cell U2OS [1], the “Accumulation in the mitochondria (DAHMI fluorescence brightness level compared with BPA, FIG. 3)” value is recorded as “more capable of accumulating in the mitochondria than clinical BPA”. Besides, in the assay with osteosarcoma cell U2OS [2], the “Entry into the cell nucleus (blue DAHMI fluorescence brightness, FIG. 2)” value was “enter the cell nucleus more easily than other compounds”. In the assay on osteosarcoma cell U2OS [3], the “Fluorescence content relative to the clinical drug boronophenylalanine” value is recorded as 1.44 times and the Fluorescence content was 3568 A.u.
